Laboratory results taken from the NIST ThermoML archive (doi:10.1021/je800463k).

Test: mn = molality of the nth substance listed, in mol/kg
Settings: 101 kPa, Liquid; for mass density: Pycnometric method; for electrical conductivity: Frequency=0.001 MHz, Alternating current cell with electrodes; for speed of sound: Frequency=2 MHz

CC(=O)[O-].CC(=O)[O-].[Mg+2] [magnesium acetate] + CO
Settings	electrical conductivity [S/m]	mass density [kg/m3]	speed of sound [m/s]	viscosity [mPa·s]
299.65 K, m1 = 0.2422	–	803.36	–	–
300.15 K, m1 = 0.2003	–	800.18	–	–
300.2 K, m1 = 0.1402	–	796.94	–	–
300.25 K, m1 = 0.0646	–	791.69	–	–
300.35 K, m1 = 0.053	–	789.91	–	–
300.8 K, m1 = 0.0339	–	788.95	–	–
300.8 K, m1 = 0.3042	–	804.76	–	–
300.85 K, m1 = 0.014	–	787.26	–	–
300.85 K, m1 = 0.2668	–	803.07	–	–
301.1 K, m1 = 0.1112	–	794.25	–	–
301.5 K, m1 = 0.2422	–	801.62	–	–
301.9 K, m1 = 0.2003	–	798.5	–	–
301.9 K, m1 = 0.2192	–	799.27	–	–
301.95 K, m1 = 0.1798	–	798.03	–	–
302.05 K, m1 = 0.0646	–	790	–	–
302.15 K, m1 = 0.053	–	788.23	–	–
302.2 K, m1 = 0.0093	–	785.05	–	–
302.35 K, m1 = 0.0059	–	784.31	–	–
302.55 K, m1 = 0.3042	–	803.02	–	–
302.8 K, m1 = 0.2668	–	801.25	–	–
302.85 K, m1 = 0.1455	–	794.77	–	–
302.9 K, m1 = 0.1402	–	794.38	–	–
303.05 K, m1 = 0.0855	–	789.45	–	–
303.15 K, m1 = 0.0059	0.0362	783.47	1086.1	–
303.15 K, m1 = 0.0093	0.0586	–	1085.4	–
303.15 K, m1 = 0.014	–	–	–	0.5207
303.15 K, m1 = 0.018	0.0665	–	1086.1	0.5223
303.15 K, m1 = 0.0339	0.0868	–	–	0.5306
303.15 K, m1 = 0.053	0.1018	–	1087.5	–
303.15 K, m1 = 0.0646	0.1103	–	–	0.5393
303.15 K, m1 = 0.0855	0.122	–	1090.3	–
303.15 K, m1 = 0.1012	–	–	–	0.5622
303.15 K, m1 = 0.1024	0.1302	–	1093.3	–
303.15 K, m1 = 0.13	–	–	–	0.5718
303.15 K, m1 = 0.1402	0.1487	–	1092.4	0.5779
303.15 K, m1 = 0.1455	0.1524	–	1091.9	–
303.15 K, m1 = 0.17	–	–	–	0.5933
303.15 K, m1 = 0.1837	0.1617	–	1094.3	–
303.15 K, m1 = 0.2003	–	–	–	0.6048
303.15 K, m1 = 0.2192	–	–	1097.7	–
303.15 K, m1 = 0.2422	0.1746	–	1095.1	–
303.15 K, m1 = 0.2889	0.181	–	1098.2	–
303.15 K, m1 = 0.3042	–	–	1099.8	–
